The record followed here is patent publication US11084798B1, “2-oxoquinazoline derivatives as methionine adenosyltransferase 2A inhibitors” (IDEAYA BIOSCIENCES, INC., priority 2018, dated 2021).

Usually IC50 stands for the midpoint of a concentration-inhibition curve. Low values mean greater potency in that assay, high ones weaker potency in that assay.

The assay deals with hMAT2A (Homo sapiens (Human), UniProt P31153). In words: Malachite Green Assay (MAT2A enzyme inhibition). In kind it is biochemical. Conditions: hMAT2A 50 nM, substrates 500 uM each. The procedure: The ability of the compound of present disclosure to inhibit MAT2A enzyme was determined using the Malachite Green or Phosphate Sensor Fluorescence Assay described below.
Sequence of hMAT2A (P31153 whole entry): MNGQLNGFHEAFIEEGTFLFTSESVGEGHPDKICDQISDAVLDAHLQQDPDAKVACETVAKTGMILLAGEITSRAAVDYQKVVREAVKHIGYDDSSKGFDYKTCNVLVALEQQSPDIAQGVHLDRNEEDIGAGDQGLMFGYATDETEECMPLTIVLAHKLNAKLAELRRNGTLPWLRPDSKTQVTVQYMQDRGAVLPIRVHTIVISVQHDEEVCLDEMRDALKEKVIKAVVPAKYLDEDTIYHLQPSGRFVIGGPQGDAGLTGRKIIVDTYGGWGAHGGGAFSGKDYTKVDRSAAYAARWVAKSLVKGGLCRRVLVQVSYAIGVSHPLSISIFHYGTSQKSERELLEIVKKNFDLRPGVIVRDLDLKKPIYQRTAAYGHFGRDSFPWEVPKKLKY
L-methionine Substrate: Alfa Aesar catalog #J61904
ATP Substrate: Alfa Aesar cat #J60336
Malachite Green Detection Reagent: Millipore Sigma catalog #MAK307-1KT
Assay buffer: 50 mM Tris, pH 7.5/50 mM KCl/10 mM MgCl2/0.01% Brij-35/1 mM DTT/0.1% BGG
The plate was centrifuged at 1000 rpm for 1 minute and then incubated at room temperature for 1 hour. 5 μL of malachite green detection reagent was added to all the test wells and the plate was centrifuged at 1000 rpm for 1 minute and then incubated at room temperature for 30 minutes. The plate was read for absorbance at 620 nm on a plate reader (e.g., Infinite M1000).

“7-chloro-4-(dimethylamino)-1-(3-(2-phenoxyethyl)phenyl)quinazolin-2(1H)-one [Example 10]” had a half-maximal inhibitory concentration (IC50) of 200 to 500 nM.
